Data taken from EP1432717B1, “SUBSTITUTED DISILOXANES, METHOD FOR THE PRODUCTION THEREOF AND THE USE THEREOF FOR REVERSAL OF MULTIDRUG RESISTANCE (MDR)” (Molnar, Jozsef, priority 2000, dated 2002).
Where a name gives a salt, the structure may show the parent alone.

Key:
[1] = system: gp-170 positiv (EPG85-257RDB) Magencarcinomazellen; assay: In vitro proliferation inhibition (compound alone); assay type: cell-based
Description: (§1) Die Intensität der unbehandelten Mdr-Zellen entsprach der 100%-igen Effluxpumpemktivität. Bei mehrfach wiederholten unabhängigen Versuchen in Deutschland und in Ungam wurde eine Inhibition der Effluxpumpen bereits bei 40,0 ng/ml Konzentration zwischen 20-45% gefunden und bei etwa 200,0 ng/ml Konzentration eine 80%-ige Hemmung erreicht. Der 100%-ige Hemmungsbereich liegt etwa zwischen 300-800 ng/ml. Es gab zwar eine erhebliche Schwankung bei der Wiederholung, jedoch fiel immer die 100%-ige Hemmung in den Nanogramm Bereich. Bei der Überprüfung von Mdr-Gen-Expression mittels PCR wurde kein Einfluss dieser ALIS-Verbindung auf die Reduktion oder Verstärkung der Mdr RNA Synthese gefunden. Das ist deshalb günstig, weil die Mdr auch eine wichtige physiologische Rolle bei den Entgiflungsmechanismen der gesunden Zellen (z.B. Nierenzellen) spielt und nach der Beendigung der Therapie das aktive gp-170 Protein wieder produziert werden kann. Außerdem wirkt ALIS-409 auch allein cancerostatisch - und zwar gegenüber gp-170 positiv (EPG85-257RDB) Magencarcinomazellen in vitro. Es wurde die folgende Proliferationshemmung nachgewiesen: 41% bei 100 ng/ml und 74% bei 300 ng/ml.

[2] = In vivo toxicity test in mice; set-up: species or system Mäuse; conditions: for survival: mouse, in vivo, 10 mg/kg, 10,0 mg/kg, read-out: Überleben der Mäuse
Excerpt: Der Erfindung liegt die Aufgabe zugrunde, Verbindungen zur Verfügung zu stellen, mit denen sich die Wirksamkeit von Zytostatika verbessern lässt. Die Aufgabe wurde erfindungsgemäß durch die Bereitstellung von neuen organischen Siliciumverbindungen der Formel I gelöst. Die erfindungsgemäßen neuen substituierten Disiloxane der allgemeinen Formel I [drawing 2] enthalten folgenden Substituenten: • R^1 = Methyl, Ethyl, Phenyl oder tertiär Butyl • R^2 = X (Halogen: Cl, Br, F), CX3, (para, ortho, meta), • n = 0-1, m = 1-3 • Q = Alkyl, Cycloalkyl, sekundäres Amin, Morpholin, substituiertes Piperazin, worin [drawing 3] • R^3 = Methyl, Ethyl, Butyl, Phenyl, Benzyl, -(CH2)pSi(R^4)3 mit p = 1 - 3 und R^4 = Methyl, Ethyl bedeuten. Die erfindungsgemäß bereitgestellten Verbindungen werden durch Umsetzung von substituierten Alkyl-dichlor-silanen mit Aryl-Grignard-Verbindungen gewonnen und daraus durch acide Hydrolyse Disiloxane, die ihrerseits im Fall von Halogen-Alkylen mit Aminen umgesetzt werden. In speziellen Fällen wird Magnesium mit 4-Fluor-brombenzol umgesetzt und daraus durch Reaktion mit 3-Chlorpropyl-methyl-dichlorsilan das Zwischenprodukt 1,3-bis(4-fluorophenyl)-1,3-dimethyl-1,3-bis(3-chloropropyl)-disiloxan gewonnen. Dieses Produkt wird seinerseits mit Morpholin zu ALIS 409 oder mit 4-Butyl-piperazin zu ALIS 421 (Beispiele 2 und 3) umgesetzt. Überraschendweise hat sich herausgestellt, dass es sich bei den erfindungsgemäßen neuen substituierten Disiloxane um biologisch wirksame, nicht toxische Verbindungen handelt, die zur Umkehrung der Multidrogeresistenz (Mdr) der malignen Tumorzellen und pathogenen Erreger fähig sind und die Effluxpumpenaktivität der malignen Mdr-Tumorzellen und die Pgp-Resistenz von parasitären Zellen, Pilzen sowie von Bakterien bereits im ng/ml-Konzentrationsbereich stark inhibieren. Die neuen substituierten Disiloxane finden Verwendung als Zytostatika und in der Chemotherapie - auch in Kombination mit anderen Mitteln. Es ist überraschend, dass sie eine starke Chemosensitation der resistenten Mdr-Tumorzellen verursachen und ihre Effluxpumpenaktivität unterdrücken. Dadurch lässt sich die intrazelluläre Chemotherapeutikum-Konzentration so hoch ansetzen, dass kein Unterschied mehr im Vergleich mit parentalen Zellen nachgewiesen werden kann. Die als ALIS-Verbindungen bezeichneten erfindungsgemäßen Substanzen sind dadurch gekennzeichnet, dass sie biologisch wirksam sind und die Effluxpumpenaktivität der malignen Mdr-Tumorzellen, Pgp-Resistenz von parasitären Zellen, Pilzen und Bakterien bereits im ng/ml-Konzentrationsbereich stark inhibieren. Auch in höheren Konzentration wirken sie in vivo nicht toxisch. Nach dem Zell-Substanz-Kontakt sind sie sofort wirksam. Die ALIS-Verbindungen sind dadurch gekennzeichnet, dass sie hauptsächlich die Wirksamkeit der Chemotherapie erhöhen, aber auch allein zytostatisch wirken. Die Toxizität der neuen Verbindungen wurde im Maussytem getestet. Das Ergebnis war überraschend gut. Trotz zehnfacher Überdosierung konnte der ID-50 Wert nicht ermittelt werden, da die Mäuse die Behandlung 100%-ig überlebt haben und kein Gewichtsverlust auftrat. In manchen Fällen bekamen die Mäuse scheinbar sogar mehr Appetit. Alle Ergebnisse weisen darauf hin, dass die erfindungsgemäß bereitgestellten Verbindungen zum Einsatz in der Chemotherapie von Tumoren bzw. von Infektionskrankheiten geeignet sind. […]

Mdr RNA Synthese = assay: PCR check of Mdr gene expression; assay type: cell-based
Description: as §1
Die methodische Überprüfung war mit dem Beispiel 3 identisch. Auch die Inhibition der Effluxpumpenaktivitäten waren ähnlich groß. Im Konzentrationsbereich 200-500 ng/ml konnte eine 100%-ige Inhibition erreicht werden. […]

[3] = Water solubility (stated in heading)
gp-170 Protein = assay: Rhodamine-123 efflux pump inhibition assay (cell sorter fluorescence FL1); assay type: cell-based, Maus; conditions: for 100%-ige Hemmungsbereich (concentration range giving 100% inhibition of the efflux pump): considerable variation between repeats
Description: 0,5 ml 2x10^6 /ml L-5178Y parental und Mdr Mauslymphomazellen wurden 10 Min. lang mit 40,0 200,0 und 1000 ng ALIS-409 inkubiert. Danach wurden die Zellen mit Rhodamin-123 Indikatorfarbstoff (Endkonzentration: 5,2 µMol) bei 37C° für 20 Min. inkubiert. Die Zellen wurden mit PBS gewaschen und die Fluoreszenz-Intensität (FL1) mittels Cellsorter gemessen. Die Intensität der unbehandelten parentalen Zellen entsprach der 100%igen Hemmung.
as §1
Die methodische Überprüfung war mit dem Beispiel 3 identisch. Auch die Inhibition der Effluxpumpenaktivitäten waren ähnlich groß. Im Konzentrationsbereich 200-500 ng/ml konnte eine 100%-ige Inhibition erreicht werden. […] Die schnelle Hemmung nach einer 10-minütigen Inkubatioszeit weist auf eine direkte Interaktion zwischen der Substanz und dem gp-170 Protein hin.

[4] = L-5178Y Mdr Mauslymphomazellen, 10 min incubation

Structure (SMILES)	inhibition at 0.1 µg/mL ([1]; 100 ng/ml, EPG85-257RDB, read-out: Proliferationshemmung)	inhibition at 0.3 µg/mL ([1]; 300 ng/ml, EPG85-257RDB, read-out: Proliferationshemmung)	Gewichtsverlust ([2]; 10,0 mg/kg)	survival [2]	Einfluss auf die Mdr-Gen-Expression (Mdr RNA Synthese) (Mdr RNA Synthese)	Wasserlöslichkeit [3]	Inhibition der Effluxpumpen (gp-170 Protein; 40,0 ng/ml, L-5178Y Mdr Mauslymphomazellen, 10 min incubation, repeated independent experiments)	100%-ige Hemmungsbereich (concentration range giving 100% inhibition of the efflux pump) (gp-170 Protein; [4])	Hemmung (Effluxpumpen) (gp-170 Protein; about 200,0 ng/ml, L-5178Y Mdr Mauslymphomazellen, 10 min incubation)	cancerostatischer Effekt allein ([1]; comparison in words)	Toxizität ([2]; 10,0 mg/kg)	Inhibition der Effluxpumpenaktivität (in words) (gp-170 Protein; Mdr tumour cells, qualitative statement)
C[Si](CCCN1CCOCC1)(O[Si](C)(CCCN1CCOCC1)c1ccc(F)cc1)c1ccc(F)cc1 (centres unmarked) [ALIS-409, 1,3-Dimethyl-1,3-bis(4-fluorophenyl)-1,3-bis(3-morpholino-propyl)-disiloxan-dihydrochlorid]	41%	74%	ohne Gewichtsverlust	100%	kein Einfluss	sehr gut wasserlöslich	20-45%	300 to 800 ng/mL	80%	–	–	–
CCCCN1CCN(CCC[Si](C)(O[Si](C)(CCCN2CCN(CCCC)CC2)c2ccc(F)cc2)c2ccc(F)cc2)CC1 (centres unmarked) [ALIS-421, 1,3-Dimethyl-1,3-bis(4-fluorophenyl)-1,3-bis{3-[1(4-butyl-piperazinyl)]-propyl}-disiloxan-tetrahydrochlorid]	–	–	ohne Gewichtsverlust	100%	keinen Einfluss	sehr gut wasserlöslich	–	200 to 500 ng/mL	–	schwächer als bei ALIS 409	nicht toxisch	ähnlich groß
